Measured values taken from patent US20120100229A1, “Treatment and Prevention of White Matter Injury with KATP Channel Activators” (Yale University, priority 2009, published 2012).

Key:
pre-oligodendrocytes = test: Pre-oligodendrocyte proliferation, CyQUANT NF Cell Proliferation assay; assay type: cell-based, rat; conditions: for IC50: exposure 72-96 h, 1 nM to 100 μM, cellular DNA content fluorescence
Method: Purified oligodendrocyte progenitor cell cultures were prepared as described (Othman et al., 2003, Glia 44:166-172). In brief, primary rat mixed glial cell cultures were isolated from whole brains of postnatal day (P) 1 rats, dissociated into single cells, and cultured into poly-D-lysine (PDL, Sigma-Aldrich, St. Louis, Mo.) coated T75 tissue culture flasks. Plating medium consisted of Dulbecco's modified Eagle's medium (DMEM, Invitrogen, Carlsbad, Calif.) supplemented with 10% fetal bovine serum (FBS; InVitrogen, Carlsbad, Calif.), 2 mM L-glutamine, […]. Tissue cultures were maintained at 37° C. in a humidified 5% CO2 incubator, and medium was exchanged every 3 days. Once confluent (after 7-9 days), microglia were separated by mechanical shaking of flasks on a rotary shaker for 60 min at 200 rpm and removed. After addition of fresh medium, the remaining cells were allowed to recover overnight before repeating the mechanical shaking for an additional 16 h at 200 rpm to isolate oligodendrocyte progenitor cells. To ensure purity of oligodendrocyte progenitor cell cultures, the isolated cells were transferred to a tissue culture dish, from which the loosely attached oligodendrocyte progenitor cells were detached by gentle shaking after 60 min, leaving behind attached microglia and astrocytes. Oligodendrocyte progenitor cells were plated onto PDL coated 96 well plates using an automated dispenser and allowed to adhere to the plates over the next 1-2 days. This procedure yielded 98% A2B5-positive (OPC marker), and 2% MBP-positive (mature OL marker) cells. GFAP-positive (astrocyte marker) or O22A-positive (microglia marker) cells could not be detected in cultures prepared in this manner.
Cells were exposed to various KATP channel stimulators, with concentrations of compounds ranging from 1 nM to 100 μM, for 72-96 h. Pre-oligodendrocytes were cultured in 384-well plates, at a concentration of 10,000 cells per well. Cultures were washed two times with DMEM to remove any residual serum and then the respective solutions of KATP channel activators were added daily in an incubation buffer of DMEM with 0.5% FBS+10 μg/ml biotin and N2 supplement. Cells were then placed at 37° C. in a humidified atmosphere containing 5% CO2. All concentrations were tested in triplicate and each study was repeated twice.
To evaluate cell proliferation in response to KATP channel stimulators, the CyQUANT® NF Cell Proliferation assay (Invitrogen, Carlsbad, Calif.) was used according to the manufacturer's instructions. This assay measured cellular DNA content as a direct index of cell proliferation. Since cellular DNA content is highly proportional to cell number, this is a very accurate way to assess cell proliferation specifically. At the end of drug exposure, medium was removed and a stock solution of the green-fluorescent CyQUANT GR dye (prepared according to manufacturer's instructions) was added. […] Fluorescence was measured using an Envision Multilabel reader (Perkin-Elmer; Excitation: 480 nm, Emission: 530 nm).

C57BL/6 mice = test: Hypoxia-induced periventricular white matter injury in neonatal mice; assay type: in vivo, mouse; conditions: for myelin basic protein-labeling (myelination): vs vehicle
Method: The effect of diazoxide in hypoxia-induced periventricular white matter injury was assessed. C57BL/6 mice were reared in […] 10% O2 from P3 to P12. Pups were treated with daily injection of either diazoxide or vehicle, with at least eight animals in each treatment group. Mice were weighed every two days. At P12, brains were removed. Ventricle size and myelin basic protein (MBP) labeling were assessed. C57BL/6 mice were exposed to low or normal oxygen conditions from P3-P12 (Turner et al., 2003, Proc. Natl. Acad. Sci. USA 100:11718-11722). In brief, litters of pups (P3) were placed with the dam in a Plexiglas chamber, in which oxygen levels were maintained at 9.5±1.0%, O2 levels were continuously monitored using a Cameron Instrument (Ontario, Canada) dual channel oxygen monitor attached to O2 electrodes placed at each end of the chamber. Control animals were kept in room air (˜22%) outside the Plexiglas chamber. Animals were removed from the chamber daily for less than 15 min to allow for diazoxide (10 mg/kg i.p.) or vehicle administration, as well as observation of weight gain. Mice were euthanized at P12, brains were harvested and shock frozen in ice cold (−20° C.) 2-methylbutane and stored at −80° C. until assessment of ventricular size or MBP immunocytochemistry (see below). At least eight animals were studied in each treatment group. Ventricle size was determined as reported (Turner et al., 2003, Proc. Natl. Acad. Sci. USA 100:11718-11722). Animals were weighed, anesthetized, and decapitated. Brains were shock frozen in ice cold (−20° C.) 2-methylbutane and stored at −80° C. Coronal sections spanning the brain were cut in a cryostat at a thickness of 16 μm in a Zeiss cryostat. Sections were mounted onto glass slides and stained with Phoenix Blue (Thermo Scientific, Waltham, Mass.). […] Ventricular sizes were quantified using Sigma Scan Pro Image Analysis Version 5.0.0 (SPSS Inc., Chicago, Ill.). The ventricular area, outlined by the Phoenix Blue staining, was measured and numerically integrated across the thickness of the slice. […]

With CC(O)(C(=O)Nc1ccc(S(=O)(=O)c2ccccc2)cc1)C(F)(F)F (stereo not drawn) [ZM26600, 3,3,3-trifluoro-2-hydroxy-2-methyl-N-(4-(phenylsulfonyl)phenyl) propanamide] the IC50 (pre-oligodendrocytes) was 2500 nM.

CCC(C)(C)/N=C(/NC#N)Nc1cccnc1 [P 1075, (E)-1-cyano-2-tert-pentyl-3-(pyridin-3-yl)guanidine] gave an IC50 (pre-oligodendrocytes; Rattus norvegicus) of 100 nM.

In the case of CC1=NS(=O)(=O)c2cc(Cl)ccc2N1 [diazoxide, 7-chloro-3-methyl-4H-1,2,4-benzothiadiazine 1,1-dioxide], the “myelin basic protein-labeling (myelination)” value (C57BL/6 mice; chronic hypoxia P3-P12, 10 mg/kg i.p. daily) is reported as “markedly improved”, the “ventricle size (ventriculomegaly)” value (C57BL/6 mice; hypoxia 10% O2 P3-P12, 10 mg/kg i.p. daily, p<0.05 ANOVA vs hypoxia-vehicle) is reported as “not enlarged” and the “myelin basic protein-labeling (myelination)” value (C57BL/6 mice; room air, 10 mg/kg i.p. daily) is reported as “More myelin basic protein-labeling”. The EC50 (pre-oligodendrocytes; Rattus norvegicus, quoted in the cell toxicity study, read-out: observed EC50 value (pre-oligodendrocyte proliferation)) was 10 nM.

With CC(=O)N(O)[C@@H]1c2cc(C#N)ccc2OC(C)(C)[C@H]1O [Y26763, N-((3S,4R)-6-cyano-3-hydroxy-2,2-dimethylchroman-4-yl)-N-hydroxyacetamide] the IC50 (pre-oligodendrocytes; Rattus norvegicus) was 200 nM.

CC1(C)Oc2ccc(C#N)cc2[C@@H](N2CCCC2=O)[C@@H]1O [levcromakalim, (3S,4R)-3-hydroxy-2,2-dimethyl-4-(2-oxopyrrolidin-1-yl)chroman-6-carbonitrile] showed an IC50 (pre-oligodendrocytes; Rattus norvegicus) of 2500 nM.

Compound CC(N/C(=N\C#N)Nc1ccncc1)C(C)(C)C (stereo not drawn) [pinacidil, (E)-1-(3,3-dimethylbutan-2-yl)-2-cyano-3-(pyridin-4-yl)guanidine] has an IC50 (pre-oligodendrocytes; Rattus norvegicus) of 10000 nM.
